Measured values from patent US7115574B2, “System and method for support legacy operating system booting in a legacy-free system” (priority 2001, dated 2006).

Columns and labels:
[1] = system: N9 clone of murine microglial cells; experiment: cAMP accumulation in N9 microglia; assay type: cell-based; conditions: for cAMP accumulation: resting cells and cells co-incubated with LPS+IFN-γ; for concentration of strongest effect on cAMP accumulation: resting microglia, 1, 10, 50 μM tested
Description: cAMP accumulation in N9 cells was measured as previously described. […] Reactions were stopped after 3 min by aspirating supernatants, immediately adding 1 mL ethanol at −20° C. and freezing. cAMP content in the ethanol-soluble fraction was measured using an enzyme immunoassay kit (Amersham).

[2] = system: C. albicans; experiment: cAMP content of C. albicans (EIA); assay type: cell-based; conditions: 10^−6 M; for cAMP content in the yeast: 3 minutes, permeabilized C. albicans
Description: C. albicans (10^6/ml), permeabilized with toluene/ethanol, were incubated at 37° C. with continuous shaking in the presence of 10^−6 M α-MSH(1-13) (SEQ ID NO: 3), (11-13), (SEQ ID NO: 1), forskolin, an agent known to increase intracellular cAMP, or in medium alone. The reaction was stopped after 3 minutes by the addition of ice cold ethanol, cAMP was measured in duplicate using a commercial enzyme immunoassay (EIA) kit (Amersham, United Kingdom) after extraction via the liquid-phase method according to manufacturer's instructions. The effect of forskolin (10^−6 M) on C. albicans colony formation was determined using the same procedure as for α-MSH peptides.

[3] = system: C. albicans; experiment: Horse serum-induced germ tube formation (germination) of C. albicans; assay type: cell-based; conditions: 10^−6M, 60 minutes at 37° C. after horse serum induction
Description: C. albicans from stationary phase cultures were washed twice with distilled water and suspended in HBSS to a final concentration of 2×10^6/ml. Hyphal growth was induced by addition of 10% inactivated horse serum (GIBCO/BRL, Great Britain) to yeast incubated for 45 minutes at 37° C. with continuous shaking. Horse serum was removed by washing cells twice with HBSS and incubation was continued for 60 minutes at 37° C. in the presence of α-MSH(1-13) (SEQ ID NO: 3), (6-13) (SEQ ID NO: 2) or (11-13) (SEQ ID NO: 1) at a concentration of 10^−6M with continuous shaking. The percentage of filamentous cells was evaluated under a light microscope with the aid of hemocytometer. Experiments were run in triplicate and at least 200 cells were scored. Photomicrographs were taken with a MC100 camera attached to an Axioskop Zeiss microscope.

[4] = system: carrageenan-induced swelling in rat paws; experiment: Rat paw edema test (carrageenan); assay type: in vivo, Sprague-Dawley rats; conditions: 100 mg/kg intraperitoneal, rats
Description: A second in vivo bioassay for anti-inflammatory activity was conducted in which the action of the tripeptide (SEQ ID NO: 1) was compared to that of hydrocortisone. In this assay, the two agents were given at similar doses and tested for their independent ability to inhibit carrageenan-induced swelling in rat paws. This assay, the rat paw edema test, was conducted generally as it is typically performed in the art, for example, as described by Winter et al. (1962), Proc. Soc. Exp. Biol. Med., 111:544 or in U.S. Pat. No. 4,150,137.
Briefly, the assay was performed as follows. Each of twenty-four male Sprague-Dawley rats was assigned to one of four groups: Tripeptide treatment and controls (matched according to body weight and initial paw volume), hydrocortisone treatment and matched controls. The volume of the right rear paw of the test and control animals was determined using standard procedures and a mercury displacement volumetric technique. […] One hour later 0.5 ml of 1% lambda carrageenan in saline solution was injected into the right rear paw of the animals and the paw volume was again recorded (baseline measure). For comparison of the effects of the two treatments, paw volume of experimental animals measured at hourly intervals was expressed as a percentage of the volume change of their respective matched controls.

[5] = system: inflammation induced in the hind paw by kappa carrageenan; experiment: Kappa carrageenan hind paw inflammation in spinal cord intact and transected mice; assay type: in vivo, BALB/c mice; conditions: for effect on carrageenan-induced paw swelling: spinal cord transected mice; for inhibition of inflammation induced in the hind paw: central administration, spinal cord intact mice
Description: Because surgical dissection of trigeminal structures that innervate the ear of the mouse is very difficult, tests to learn whether descending neural pathways are essential to the anti-inflammatory activity of centrally administered α-MSH peptides were performed in mice with inflammation induced in a hind paw. In these experiments, each animal was anesthetized with pentobarbital sodium solution as above. Baseline foot pad thickness of both hind paws was measured with a spring-loaded micrometer (Swiss Precision Instruments, Los Angeles, Calif.). Paw thickness was expressed in units of 10^−3 cm; average thickness of unstimulated paws was 171.5×10^−3 cm across shipments of animals. Kappa carrageenan (Sigma) dissolved in saline (0.05%, 20 μl) was injected (28 gauge allergy test syringe) into one footpad, and saline (20 μl) was injected into the other. For the analyses, the increase in thickness of the control saline-injected paw of each animal was subtracted from that of the carrageenan-injected paw, to eliminate the influence of mechanical injury and volume of the injected fluid. […] Treatment with the locally acting steroid reduced swelling up to 29% (average, relative to saline controls) at 4.5 hr. after carrageenan.
However, a standardized crushing of lumbar vertebrae with a hemostat (Kelly) was effective in severing the cord; no deaths were caused by this treatment. […] The experiments were limited to 4.5 hr to reduce problems of bowel and bladder dysfunction. Immediately after the 4.5 hr measurements all mice were killed with an overdose of sodium pentobarbital.
Because of the size of the experiments and the requirement for several shipments of animals over time, several experiments were performed, each with complete treatment and control groups drawn from the same shipment of mice. Omnibus analysis of variance techniques (Dynastat, Washington, D.C.) were used to test overall differences among group means. Tukey's protected t test was used to compare individual means. Probability values of <0.05 were considered significant.

[6] = Lipton and Catania, Immunol. Today 1997; cited from earlier work

Substance	cAMP accumulation [1]	concentration of strongest effect on cAMP accumulation [1]	increase in cAMP relative to equimolar forskolin [2]	cAMP content in the yeast [2]	reduction in the number of filamentous cells / inhibition of germ tube formation [3]	reduction in the number of filamentous cells / inhibition of germ tube formation ([3]; listed as tripeptide)	anti-inflammatory activity (inhibition of paw edema) ([4]; between 1 and 4 hours)	decrease in paw inflammation ([4]; first hour after carrageenan injection)	effect on carrageenan-induced paw swelling ([5]; given intraperitoneally)	effect on carrageenan-induced paw swelling ([5]; given intraperitoneally, listed as tripeptide)	cAMP accumulation in conjunction with LPS and IFN-γ ([1]; peptide 10 μM with LPS+IFN-γ, forskolin 100 μM as comparison)	toxicity [6]	inhibition of inflammation induced in the hind paw ([5]; 3 hr)	inhibition of inflammation induced in the hind paw ([5]; 4.5 hr)	effect on carrageenan-induced paw swelling ([5]; centrally injected)
Ac-Lys-Pro-Val-NH2 [α-MSH(11-13)]	increased cAMP accumulation	50 µM	same order of magnitude	enhanced cAMP content	approximately 56%	54-58%	nearly identical anti-inflammatory activity	no such reduction was observed	even more effective at reducing swelling	marked inhibitory effect on inflammation	–	–	–	–	–
SYSMEHFRWGKPV [α-MSH(1-13)]	increased cAMP accumulation	10 µM	–	enhanced cAMP content	–	–	–	–	significant, although smaller, inhibitory effect	–	more effective of the two	very low toxicity	57%	29%	had no effect on paw swelling
